In data set [1] the target is T1, ROCK1 (Homo sapiens, UniProt Q13464).
T1 construct: 15 μl kinase reaction volume with 5 ng ROCK1 enzyme
The data set can be described thus: Z′-LYTE kinase assay, ROCK1 enzyme activity. Format: biochemical. Here is the method: Kinase inhibition was measured by using the Z′-LYTE™ Kinase Assay Kit with Ser/Thr 7 peptide substrate (Invitrogen, cat. PV3180). Compounds were tested on three individual times with eight point dilutions performed in duplicate to determine the average IC50 values. The assay conditions were optimized to 15 μl kinase reaction volume with 5 ng ROCK1 enzyme in 50 mM HEPES (pH = 7.5), 10 mM MgCl2, 0.01% Brij-35 and 1 mM EGTA. Initially, the reaction was incubated for 1 hour at room temperature in the presence of 1.5 μM peptide substrate and 12.5 μM ATP for ROCK1. Then, 5 μL development reagent A was added and the assay plate was incubated for another 1 hour. Finally, […] stop reagent was added and the assay plate was shaken for 1 hour. The coumarin (ex. 400 nm, em. 445 nm) and fluorescein (ex. 400 nm, em. 520 nm) emission signals were measured on a fluorescence plate reader (Thermo Scientific Varioskan Flash).

The subject of data set [2] is phosphorylation of cofilin (ROCK pathway) in HUVEC. Description: Western blotting of cofilin phosphorylation in HUVEC. In kind it is cell-based, Human. To be noted: compared with the control group. As for the experimental part: Human umbilical vein endothelial cells (HUVEC, ATCC, Manassas, USA) were cultured and maintained in the F-12 K medium with 2 mM L-glutamine, 1.5 g/L sodium bicarbonate, 100 μg/mL heparin, 30 μg/mL endothelial cell growth supplement and 10% fetal bovine serum (FBS) at 37 °C in a humidified atmosphere of 5% CO2. Cells were exposed to culture medium with 10% FBS for at least 1 day before experiments. Only 3–6 passages of cells were used in this study.
HUVEC was pretreated with different targeted compounds (TS-15 and TS-40) for 1 hour. Y27632 and 0.2% DMSO were used as the positive control and vehicle control, respectively. After drug treatment, cells were washed with pre-cold PBS and lysed on ice with RIPA lysis buffer for 30 min, followed by centrifugation at 12,500 g for 20 min at 4 °C. The supernatant was collected and protein concentration was determined using the BCA protein assay kit (Thermo Scientific Pierce). Aliquots of protein samples were boiled for 5 min at 95 °C and electrophoresed on 10% SDS-PAGE and then transferred to a polyvinylidene difluoride membrane (Bio-Rad, Hercules, CA, USA). Subsequently, the membrane was blocked with 5% (w/v) nonfat milk in TBS-T buffer for 1 hour at room temperature. The blots were incubated overnight at 4 °C with primary antibodies. After being washed with TBS-T for 20 min at room temperature, the membranes were further incubated with horseradish peroxidase-conjugated secondary antibodies for 2 hours at room temperature. Finally, protein bands were visualized using ECL Plus Western blotting detection reagents (GE Healthcare, Piscataway, NJ, USA). The membranes were then scanned on a Bio-Rad ChemiDoc imaging system and the intensity of the protein bands was analyzed using the Bio-Rad Image Lab software.
On the technique in general: A western blot detects proteins with antibodies after separation by electrophoresis.

For data set [3], the system named is zebrafish embryos. The data set can be described thus: Atorvastatin-induced cerebral hemorrhage in zebrafish. Format: in vivo. To be noted: for Cerebral hemorrhage rate (%): then atorvastatin 24 hours; for hemorrhage changes compared with the disease model group: atorvastatin 24 hours. Details: hemorrhage changes compared with the disease model group: dose or concentration left out as unconfirmed. As for the experimental part:
Tg (fli1a:EGFP)y1; Tg (gata1a:dsRed)sd2 homozygous double transgenic zebrafish was used and maintained as described in our previous study. […] The animal experiments were carried out in “accordance” with the approved guidelines of the Animal Research Ethics Committee, University of Macau and approved by the Animal Research Ethics Committee, University of Macau.
Tg (fli1a:EGFP)y1; Tg (gata1a:dsRed)sd2 homozygous double transgenic zebrafish embryos at 22 hours post-fertilization (hpf) were pretreated with the targeted compounds (TS 15 and TS 40) for 2 hours. During this period, the positive control group was treated with […] Y27632 while the vehicle control group was given with 0.2% DMSO (solvent). Then, all the pretreated embryos washed with PBS for 3 times and challenged with 1 mM atorvastatin for 24 hours according to the reported protocol with small modifications. After that, the viability and cerebral hemorrhage changes were observed using a fluorescence microscope (Olympus IX81 Motorized Inverted Microscope, Japan) equipped with a digital camera (DP controller, Soft Imaging System, Olympus, Germany). The results were analyzed with Axiovision 4.2 (Soft Imaging System, Olympus, Germany) and the public-domain Image J software (Rasband WS, Image J; US National Institutes of Health, Bethesda, MD). The cerebral hemorrhage rate of each group was calculated by the number of zebrafish with cerebral hemorrhage to the total number of each group.

The mark [4] stands for this setting: ROCK1, 12.5 μM ATP, 8-point dilutions, three individual times.

Where “and” joins values, the source holds several entries; their conditions need not be identical. Identical values can stand only once.

T1 sequence (Q13464 whole entry): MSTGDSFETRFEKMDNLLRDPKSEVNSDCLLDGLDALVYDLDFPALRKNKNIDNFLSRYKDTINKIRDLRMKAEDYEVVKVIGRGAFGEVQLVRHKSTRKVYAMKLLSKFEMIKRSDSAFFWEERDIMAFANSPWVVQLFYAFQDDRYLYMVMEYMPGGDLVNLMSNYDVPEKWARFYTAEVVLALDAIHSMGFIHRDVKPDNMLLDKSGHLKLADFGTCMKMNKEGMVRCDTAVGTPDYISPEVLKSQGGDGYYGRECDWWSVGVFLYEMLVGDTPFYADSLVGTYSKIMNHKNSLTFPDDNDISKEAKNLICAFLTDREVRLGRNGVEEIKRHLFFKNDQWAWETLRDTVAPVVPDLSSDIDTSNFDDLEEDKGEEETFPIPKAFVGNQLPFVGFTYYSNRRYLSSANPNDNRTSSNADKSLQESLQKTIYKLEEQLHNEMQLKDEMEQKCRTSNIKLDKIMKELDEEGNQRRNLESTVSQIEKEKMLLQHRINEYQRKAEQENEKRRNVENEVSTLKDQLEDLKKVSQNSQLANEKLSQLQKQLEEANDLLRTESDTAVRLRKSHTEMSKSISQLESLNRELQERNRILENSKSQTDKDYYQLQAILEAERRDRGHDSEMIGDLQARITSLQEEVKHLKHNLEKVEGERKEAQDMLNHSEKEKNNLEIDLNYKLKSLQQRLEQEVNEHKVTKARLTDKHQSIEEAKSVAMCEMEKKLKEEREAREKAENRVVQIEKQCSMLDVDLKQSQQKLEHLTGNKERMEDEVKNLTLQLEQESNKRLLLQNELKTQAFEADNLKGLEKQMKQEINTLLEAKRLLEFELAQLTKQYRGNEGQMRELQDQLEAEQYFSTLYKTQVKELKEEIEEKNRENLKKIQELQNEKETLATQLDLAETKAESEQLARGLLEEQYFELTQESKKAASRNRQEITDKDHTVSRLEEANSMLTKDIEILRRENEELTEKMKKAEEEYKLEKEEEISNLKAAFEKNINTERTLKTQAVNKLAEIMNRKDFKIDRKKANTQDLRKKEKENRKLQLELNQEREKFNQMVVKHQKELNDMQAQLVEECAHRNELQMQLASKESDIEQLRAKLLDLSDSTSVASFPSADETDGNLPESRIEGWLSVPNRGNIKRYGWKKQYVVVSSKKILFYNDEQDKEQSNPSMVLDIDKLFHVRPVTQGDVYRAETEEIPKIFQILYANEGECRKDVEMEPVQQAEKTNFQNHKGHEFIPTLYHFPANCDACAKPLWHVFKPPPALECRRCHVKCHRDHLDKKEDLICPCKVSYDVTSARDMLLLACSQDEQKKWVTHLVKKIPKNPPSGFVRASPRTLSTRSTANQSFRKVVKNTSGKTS

`O=c1[nH]c2ccc(-c3cc(NC4CCCC4)nc4[nH]ccc34)cc2[nH]c1=O` [TS-11]: the half-inhibitory concentration (IC50) in data set [1] (setting [4]) stood at 67.2 ± 0.57 µM.
Still for that read-out and setting: next, `CNc1cc(-c2ccccc2OCCn2ccnc2)c2cc[nH]c2n1` [TS-27]: 26.5 ± 1.13 µM.
The same measure, in the same setting: under `Nc1cc(-c2ccc(C3(O)CCNCC3)cc2)c2cc[nH]c2n1` [TS-28] stands 6.71 ± 1.48 µM; under `OCCCNCc1cccc(-c2ccnc3[nH]ccc23)c1` [TS-f5], 1.55 ± 0.57 µM.
As to `OC(CN1CCOCC1)c1ccc(-c2ccnc3[nH]ccc23)cc1` (stereo not shown) [TS-15], the IC50 in data set [1] (setting [4]) was < 1 µM and 0.25 µM; in data set [1] (ROCK1, value given in text) it was less than 0.3 µM. Besides, the “phosphorylation level of cofilin (p-cofilin band, ratio to T-cofilin)” value in data set [2] is recorded as “significant inhibitory effects”. For the same compound, the “Cerebral hemorrhage rate (%)” value in data set [3] (6 μM pretreatment) is given as 79.3 ± 5.9%; in data set [3] (20 μM pretreatment), 73.5 ± 13.0 %; in data set [3] (60 μM pretreatment) it was <60 ^b,* %. Also, the “hemorrhage changes compared with the disease model group” value (“hemorrhage changes” for short) in data set [3] is given as “obviously abated”. Further, the “inhibitory rate against cerebral hemorrhage” value (shortened to “inhibitory rate”) in data set [3] (dose of 6 μM) is listed as 79.3%; in data set [3] (dose of 20 μM) it was 73.5%; in data set [3] (dose of 60 μM), less than 60%. In addition, the toxicity to zebrafish result is “relatively safe” in data set [3] (dose of 20 μM) and “toxic” in data set [3] (dose of 60 μM).
Regarding `C[C@@H](N)[C@H]1CC[C@H](C(=O)Nc2ccncc2)CC1` [Y27632, reference compound], in data set [2], the “phosphorylation level of cofilin (p-cofilin band, ratio to T-cofilin)” value was “reduced significantly”. Also, in data set [3] (10 μM pretreatment), the “Cerebral hemorrhage rate (%)” value is given as 74.4 ± 8.7 %. Besides, the “hemorrhage changes” value in data set [3] is reported as “obviously abated”. Moreover, the “inhibitory rate” value in data set [3] (dose of 10 μM) was 74.4%.
As for `O=S(=O)(c1ccccc1)c1ccc(-c2ccnc3[nH]ccc23)cc1` [TS-f13], in data set [1] (setting [4]), 3.2 ± 1.06 µM corresponded to half-maximal inhibition (IC50).
Still for that read-out and setting: under `c1cc(OCCn2ccnc2)cc(-c2ccnc3[nH]ccc23)c1` [TS-f37] stands 1.82 ± 0.76 µM; under `CN(Cc1cccc(C(=O)Nc2ccc3[nH]ncc3c2)c1)Cc1cc[nH]n1` [TS-f6], 12.4 ± 0.85 µM.
On the same count and under the same terms, under `COCCNc1cc(-c2ccc(C3(O)CCNCC3)cc2)c2cc[nH]c2n1` [TS-16] stands 9.94 ± 4.33 µM.
Consider `CN(Cc1cc(F)ccc1O)Cc1cccc2cnccc12` [TS-f28], for which, in data set [1] (setting [4]), it took 23.05 ± 0.07 µM to reach half-maximal inhibition (IC50).
Still for that read-out and setting: next, `COCc1nc2cc(-c3ccnc4[nH]ccc34)ccc2o1` [TS-f25]: 4.42 ± 1.14 µM; `Cc1nc(-c2cccc(-c3ccnc4[nH]ccc34)c2)no1` [TS-f26]: 3.48 ± 1.65 µM.
On the same count and under the same terms, under `NCC1CCN(Cc2ccc(-c3nc(-c4ccncc4)cc(=O)[nH]3)cc2)CC1` [TS-f7] stands 28.3 ± 0.99 µM; under `CCCCNC(=O)c1ccc(-c2ccnc3[nH]ccc23)o1` [TS-f32], 2.21 ± 0.21 µM.
Same read-out and setting: under `O=C(NCCc1c[nH]cn1)c1coc(COc2cccc3cnccc23)n1` [TS-f10] stands 31.4 ± 1.63 µM.
Turning to `NS(=O)(=O)c1ccc(-c2ccnc3[nH]ccc23)c(F)c1` [TS-40], the half-inhibitory concentration (IC50) in data set [1] (setting [4]) was < 1 µM and 0.15 µM; in data set [1] (ROCK1, value given in text), less than 0.3 µM. Also, the “phosphorylation level of cofilin (p-cofilin band, ratio to T-cofilin)” value in data set [2] is on record as “significant inhibitory effects”. Also, the “Cerebral hemorrhage rate (%)” value in data set [3] (6 μM pretreatment) was 90.6 ± 7.4%; in data set [3] (20 μM pretreatment) it was 78.8 ± 7.1 %; in data set [3] (60 μM pretreatment), 66.2 ± 7.2 %. Besides, the “hemorrhage changes” value in data set [3] was “obviously abated”. Further, the “inhibitory rate” value in data set [3] (dose of 20 μM) came to 78.8%; in data set [3] (dose of 60 μM), 66.2%.
For the compound `Cn1ncc2cc(-c3ccnc4[nH]ccc34)ccc21` [TS-f22], the 50% inhibitory concentration (IC50) in data set [1] (setting [4]) was < 1 µM and 0.48 µM.

Broadly, the IC50 is the point on the concentration scale where inhibition reaches its midpoint.

Source of the values: PMC4645114, “Discovery of Novel ROCK1 Inhibitors via Integrated Virtual Screening Strategy and Bioassays” (Scientific Reports, 2015).
